In PubChem BioAssay (NCI):
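Exposure lasted 48 hours, with cells grown in 96-well plates and compounds tested at five concentrations. TGI is the concentration that stops growth completely.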

Columns and labels:
Assay in all cases: NCI tumour cell line growth inhibition, 48 h
[1] = tested on: 786-0 renal
[2] = tested on: A549 NSCLC
[3] = tested on: BT-549 breast
[4] = tested on: CCRF-CEM leukemia
[5] = tested on: COLO 205 colon
[6] = tested on: DU-145 prostate
[7] = tested on: EKVX NSCLC
[8] = tested on: HCC-2998 colon
[9] = tested on: HCT-116 colon
[10] = tested on: HCT-15 colon
[11] = tested on: HL-60(TB) leukemia
[12] = tested on: HOP-62 NSCLC
[13] = tested on: HOP-92 NSCLC
[14] = tested on: HT29 colon
[15] = tested on: IGROV1 ovarian
[16] = tested on: K-562 leukemia
[17] = tested on: KM12 colon
[18] = tested on: LOX IMVI melanoma
[19] = tested on: M14 melanoma
[20] = tested on: MCF7 breast
[21] = tested on: MDA-MB-231 breast
[22] = tested on: MDA-MB-435
[23] = tested on: MDA-N
[24] = tested on: MOLT-4 leukemia
[25] = tested on: NCI-H23 lung
[26] = tested on: NCI-H460 lung
[27] = tested on: NCI-H522 lung
[28] = tested on: NCI/ADR-RES ovarian
[29] = tested on: OVCAR-3 ovarian
[30] = tested on: OVCAR-4 ovarian
[31] = tested on: OVCAR-5 ovarian
[32] = tested on: OVCAR-8 ovarian
[33] = tested on: PC-3 prostate
[34] = tested on: SF-268 CNS
[35] = tested on: SF-295 CNS
[36] = tested on: SF-539 CNS
[37] = tested on: SK-MEL-28 melanoma
[38] = tested on: SK-MEL-5 melanoma
[39] = tested on: SK-OV-3 ovarian
[40] = tested on: SN12C renal
[41] = tested on: SNB-19 CNS
[42] = tested on: SNB-75 CNS
[43] = tested on: SR leukemia
[44] = tested on: SW-620 colon
[45] = tested on: T-47D breast
[46] = tested on: TK-10 renal
[47] = tested on: U251 CNS
[48] = tested on: UACC-257 melanoma
[49] = tested on: UACC-62 melanoma
[50] = tested on: UO-31 renal
[51] = tested on: A498 renal
[52] = tested on: ACHN renal
[53] = tested on: CAKI-1 renal
[54] = tested on: HS 578T breast
[55] = tested on: MALME-3M melanoma
[56] = tested on: NCI-H226 lung
[57] = tested on: RPMI-8226 leukemia
[58] = tested on: RXF 393 renal

Measured: TGI

c1ccc2c(c1)SCCCS2
> 100 µM: [1] | [2] | [3] | [4] | [5] | [6] | [7] | [8] | [9] | [10] | [11] | [12] | [13] | [14] | [15] | [16] | [17] | [18] | [19] | [20] | [21] | [22] | [23] | [24] | [25] | [26] | [27] | [28] | [29] | [30] | [31] | [32] | [33] | [34] | [35] | [36] | [37] | [38] | [39] | [40] | [41] | [42] | [43] | [44] | [45] | [46] | [47] | [48] | [49] | [50]

Nc1ncc(Cc2ccc3c(c2)OCO3)c(N)n1
> 100 µM: [1] | [51] | [2] | [52] | [53] | [4] | [5] | [6] | [7] | [8] | [9] | [10] | [11] | [12] | [13] | [54] | [14] | [15] | [16] | [17] | [18] | [19] | [55] | [20] | [21] | [22] | [23] | [24] | [56] | [25] | [26] | [28] | [29] | [30] | [31] | [32] | [33] | [57] | [58] | [34] | [35] | [36] | [37] | [38] | [39] | [40] | [41] | [43] | [44] | [45] | [46] | [47] | [48] | [49] | [50]
